Measurements reported in patent US20120010075A1 (priority 2009, published 2012).
Read-outs that look alike come from different tables or passages of the source.

Tested on: Phytophthora infestans
Format: in vivo, Phytophthora infestans on tomato (Outdoor Girl)
[1] = hydrazone 200 μM + CuCl2 200 μM
[2] = hydrazone 200 μM + CuCl2 400 μM
[3] = hydrazone 200 μM + CuCl2 800 μM
[4] = hydrazone 200 μM + CuSO4 200 μM
[5] = hydrazone 200 μM + CuSO4 400 μM
[6] = hydrazone 200 μM + CuSO4 800 μM
[7] = hydrazone 400 μM + CuCl2 200 μM
[8] = hydrazone 400 μM + CuCl2 400 μM
[9] = hydrazone 400 μM + CuCl2 800 μM
[10] = hydrazone 400 μM + CuSO4 200 μM
[11] = hydrazone 400 μM + CuSO4 400 μM
[12] = hydrazone 400 μM + CuSO4 800 μM

With `O=C(N/N=C/c1cc(Cl)cc(Cl)c1O)c1ccccc1` [Example 16] the “% Control of Tomato Late Blight, predicted (in brackets, Colby)” value (“% Control … predicted (in brackets, Colby)” for short) (hydrazone 50 μM + CuSO4 50 μM) was 15.5%, the “% Control of Tomato Late Blight” value (hydrazone 50 μM + CuSO4 200 μM) was 72.9% and the “% Control … predicted (in brackets, Colby)” value (hydrazone 50 μM + CuSO4 200 μM) was 55.4%. The “% Control of Tomato Late Blight” value (hydrazone 50 μM + CuSO4 400 μM) was 78.0%, the “% Control … predicted (in brackets, Colby)” value (hydrazone 50 μM + CuSO4 400 μM) was 78.8% and the “% Control of Tomato Late Blight” value (hydrazone 50 μM + CuSO4 800 μM) was 91.6%. The “% Control … predicted (in brackets, Colby)” value (hydrazone 50 μM + CuSO4 800 μM) was 84.8%, the “% Control of Tomato Late Blight” value (hydrazone 50 μM alone, no copper) was 11.3% and the “% Control of Tomato Late Blight” value (hydrazone 200 μM + CuCl2 10 μM) was 67.8%. The “% Control … predicted (in brackets, Colby)” value (hydrazone 200 μM + CuCl2 10 μM) was 22.7%, the “% Control of Tomato Late Blight” value (hydrazone 200 μM + CuCl2 50 μM) was 96.6% and the “% Control … predicted (in brackets, Colby)” value (hydrazone 200 μM + CuCl2 50 μM) was 28.1%. The “% Control of Tomato Late Blight” value [1] was 95.8%, the “% Control … predicted (in brackets, Colby)” value [1] was 51.5% and the “% Control of Tomato Late Blight” value [2] was 90.8%. For the same molecule, the “% Control … predicted (in brackets, Colby)” value [2] was 65.4%, the “% Control of Tomato Late Blight” value [3] was 96.7% and the “% Control … predicted (in brackets, Colby)” value [3] was 76.6%. For the same molecule, the “% Control of Tomato Late Blight” value (hydrazone 200 μM + CuSO4 10 μM) was 78.0%, the “% Control … predicted (in brackets, Colby)” value (hydrazone 200 μM + CuSO4 10 μM) was 22.7% and the “% Control of Tomato Late Blight” value (hydrazone 200 μM + CuSO4 50 μM) was 81.3%. The “% Control … predicted (in brackets, Colby)” value (hydrazone 200 μM + CuSO4 50 μM) was 25.1%, the “% Control of Tomato Late Blight” value [4] was 93.2% and the “% Control … predicted (in brackets, Colby)” value [4] was 60.4%. The “% Control of Tomato Late Blight” value [5] was 95.8%, the “% Control … predicted (in brackets, Colby)” value [5] was 81.2% and the “% Control of Tomato Late Blight” value [6] was 97.5%. For the same molecule, the “% Control … predicted (in brackets, Colby)” value [6] was 86.5%, the “% Control of Tomato Late Blight” value (hydrazone 200 μM alone, no copper) was 21.4% and the “% Control of Tomato Late Blight” value (hydrazone 400 μM + CuCl2 10 μM) was 64.4%. The “% Control … predicted (in brackets, Colby)” value (hydrazone 400 μM + CuCl2 10 μM) was 26.9%, the “% Control of Tomato Late Blight” value (hydrazone 400 μM + CuCl2 50 μM) was 91.7% and the “% Control … predicted (in brackets, Colby)” value (hydrazone 400 μM + CuCl2 50 μM) was 32.0%. For the same molecule, the “% Control of Tomato Late Blight” value [7] was 91.7%, the “% Control … predicted (in brackets, Colby)” value [7] was 54.1% and the “% Control of Tomato Late Blight” value [8] was 99.8%. The “% Control … predicted (in brackets, Colby)” value [8] was 67.3%, the “% Control of Tomato Late Blight” value [9] was 100.0% and the “% Control … predicted (in brackets, Colby)” value [9] was 77.9%. The “% Control of Tomato Late Blight” value (hydrazone 400 μM + CuSO4 10 μM) was 41.5%, the “% Control … predicted (in brackets, Colby)” value (hydrazone 400 μM + CuSO4 10 μM) was 26.9% and the “% Control of Tomato Late Blight” value (hydrazone 400 μM + CuSO4 50 μM) was 54.5%. For the same molecule, the “% Control … predicted (in brackets, Colby)” value (hydrazone 400 μM + CuSO4 50 μM) was 29.2%, the “% Control of Tomato Late Blight” value [10] was 87.2% and the “% Control … predicted (in brackets, Colby)” value [10] was 62.6%. For the same molecule, the “% Control of Tomato Late Blight” value [11] was 96.6%, the “% Control … predicted (in brackets, Colby)” value [11] was 82.2% and the “% Control of Tomato Late Blight” value [12] was 98.3%. The “% Control … predicted (in brackets, Colby)” value [12] was 87.3% and the “% Control of Tomato Late Blight” value (hydrazone 400 μM alone, no copper) was 25.7%.
